Laboratory results taken from PMC5954133, “Functional Characterization of a Small Alarmone Hydrolase in Corynebacterium glutamicum” (Frontiers in Microbiology, 2018).

Molecular target: T1, RelSCg (Corynebacterium glutamicum, UniProt Q8NNR8)
T1 construct: gene Cgl2119; full-length; expressed in E. coli ER2566
T1 sequence (Q8NNR8 1-341): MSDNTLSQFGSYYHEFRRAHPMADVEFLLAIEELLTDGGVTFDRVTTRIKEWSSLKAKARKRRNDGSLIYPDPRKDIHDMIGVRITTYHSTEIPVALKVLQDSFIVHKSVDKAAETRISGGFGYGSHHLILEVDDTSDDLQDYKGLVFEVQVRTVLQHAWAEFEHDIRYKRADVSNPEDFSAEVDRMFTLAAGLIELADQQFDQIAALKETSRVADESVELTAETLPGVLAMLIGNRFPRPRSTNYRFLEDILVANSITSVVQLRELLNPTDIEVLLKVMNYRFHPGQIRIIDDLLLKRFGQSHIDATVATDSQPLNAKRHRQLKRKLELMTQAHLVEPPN
Experiment: preparative pyrophosphorylation, product identified by HPLC-MS
Format: biochemical
Conditions: 12 mM ATP, 10 mM MgCl2, 50 mM Tris-HCl pH 8, 16 h

SMILES | preparative pyrophosphorylation, product identified by HPLC-MS
Nc1nc2c(ncn2[C@@H]2O[C@H](COP(=O)(O)OP(=O)(O)O)[C@@H](O)[C@H]2O)c(=O)[nH]1 [GDP] | produced by RelSCg-catalyzed pyrophosphorylation of GMP, GDP or GTP
Nc1nc2c(ncn2[C@@H]2O[C@H](COP(=O)(O)O)[C@@H](O)[C@H]2O)c(=O)[nH]1 [GMP] | produced by RelSCg-catalyzed pyrophosphorylation of GMP, GDP or GTP
